In patent US6623741B1, “Methods and compositions for inhibition of membrane fusion-associated events including RSV transmission” (Trimeris, Inc., priority 2000, dated 2003):

Key:
[1] = Circular dichroism spectroscopy (helicity, thermal stability); assay type: physicochemical; conditions: 10 and 50 μM
Procedure: Circular Dichroism Spectroscopy:
Circular Dichroism (CD) spectra were obtained using an AVIV Associates 62DS spectrometer equipped with a thermoelectric temperature controller. Spectra were obtained in 0.1, 0.5 and 1.0 cm quartz cells at 1° C. with 0.5 nm steps from 200 to 260 nm, 1.5 nm bandwidth and an averaging time of 4 sec/step. After the cell/buffer blank was subtracted, spectra were smoothed using a third-order least-squares polynomial fit with a conservative (5-10 point) window size to give random residuals. Mixing experiments were performed by comparing the spectrum of the two peptides mixed together in a 0.1 cm path length cell at the desired concentrations (referred to herein as the “experimental” spectrum) to the sum of the individual spectra of the peptides, each solution in a 0.1 cm path length cell (referred to herein as the “model spectrum” for no peptide interaction or “model for no interaction”).
Raw ellipticity values were converted to mean residue ellipticity using standard methods (Cantor & Schimmel, 1980, Biophysical Chemistry Part II: Techniques for the Study of Biological Structure and Function, W.H. Freeman and Co., New York). Conversions for the mixing experiment spectra were performed using a peptide length corresponding to the average of the two peptides. Thermal stability measurements were performed in 2° C. steps, with 1 minute equilibration times. Spectra were smoothed, converted to mean residue ellipticity, and the corresponding value at 222 nm noted from each spectrum. Percent helicity values were calculated using single value decomposition with a basis set of 33 protein spectra (Johnson & Curtis, 1990, Proteins: Structure, Function and Genetics 7:205-214).

[2] = system: RSV; assay: Anti-RSV antiviral activity assay (syncytial formation, HEp2 cells); assay type: cell-based, respiratory syncytial virus; conditions: purified peptides
Procedure: Anti-RSV Antiviral Activity Assays:
The assay utilized herein tested the ability of the peptides to disrupt the ability of HEp2 cells acutely infected with RSV (i.e., cells which are infected with a multiplicity of infection of greater than 2) to fuse and cause syncytial formation on a monolayer of uninfected an uninfected line of Hep-2 cells. The lower the observed level of fusion, the greater the antiviral activity of the peptide was determined to be. […]
After incubation, cells in control wells were checked for fusion centers, media was removed from the wells, followed by addition, to each well, of either Crystal Violet stain or XTT. […] The number of syncytia per well were then counted, using a dissecting microscope.
With respect to XTT (2,3-bis[2-Methoxy-4-nitro-5-sulfophenyl]-2H-tetrazolium-5-carboxyanilide inner salt), 50 μl XTT (1 mg/ml in RPMI buffered with 100 mM HEPES, pH 7.2-7.4, plus 5% DMSO) were added to each well. The OD450/690 was measured (after blanking against growth medium without cells or reagents, and against reagents) according to standard procedures. […]

For CC[C@H](C)[C@H](NC(=O)[C@H](Cc1ccccc1)NC(=O)[C@H](C)NC(=O)[C@H](CC(C)C)NC(=O)[C@H](CO)NC(=O)[C@H](CCC(N)=O)NC(=O)[C@H](CC(N)=O)NC(=O)[C@@H](NC(=O)[C@H](CCCCN)NC(=O)[C@H](CCC(=O)O)NC(=O)[C@H](CC(N)=O)NC(=O)[C@@H](NC(=O)[C@H](CCC(N)=O)NC(=O)[C@H](CO)NC(=O)[C@@H](NC(=O)[C@H](CO)NC(=O)[C@H](C)NC(=O)[C@H](CC(=O)O)NC(=O)[C@H](Cc1ccccc1)NC(=O)[C@H](CCC(=O)O)NC(=O)[C@H](CC(=O)O)NC(=O)[C@H](CO)NC(=O)[C@@H]1CCCN1C(=O)[C@H](Cc1ccccc1)NC(=O)[C@@H](NC(C)=O)C(C)C)[C@@H](C)CC)C(C)C)[C@@H](C)CC)C(=O)N[C@@H](CCCNC(=N)N)C(=O)N[C@@H](CCCCN)C(=O)N[C@@H](CO)C(=O)N[C@@H](CC(=O)O)C(=O)N[C@@H](CCC(=O)O)C(=O)N[C@@H](CC(C)C)C(=O)N[C@@H](CC(C)C)C(=O)N[C@@H](Cc1c[nH]cn1)C(=O)N[C@@H](CC(N)=O)C(=O)N[C@H](C(N)=O)C(C)C [Peptide T112], the “thermal stability (CD melting curves, in words)” value [1] was “little thermal stability”, the helicity ([1]; PBS solution) was “less than 10%” and the “anti-RSV antiviral activity (in words)” value [2] was “substantial antiviral activity”.
